Results as given in US10550102B2, “Indane and indoline derivatives and the use thereof as soluble guanylate cyclase activators” (NOVARTIS AG, priority 2014, dated 2020).

Each compound was assayed against soluble guanylate cyclase (human GUCYA3 and GUCYB3) overexpressed in CHO cells (Homo sapiens (Human), UniProt Q02153) (assay: CHO cellular assay (cGMP production, Cisbio cGMP HTRF kit)). Conditions: CHO GUCY clone 8E10, cGMP production, assay buffer with 1 mM IBMX and 20 uM ODQ, 1 h room temperature; minimum quantification limit 0.5 nM (listed 0.5 nM means ≤0.5 nM).
soluble guanylate cyclase (human GUCYA3 and GUCYB3) overexpressed in CHO cells, sequence (Q02108 whole entry partner): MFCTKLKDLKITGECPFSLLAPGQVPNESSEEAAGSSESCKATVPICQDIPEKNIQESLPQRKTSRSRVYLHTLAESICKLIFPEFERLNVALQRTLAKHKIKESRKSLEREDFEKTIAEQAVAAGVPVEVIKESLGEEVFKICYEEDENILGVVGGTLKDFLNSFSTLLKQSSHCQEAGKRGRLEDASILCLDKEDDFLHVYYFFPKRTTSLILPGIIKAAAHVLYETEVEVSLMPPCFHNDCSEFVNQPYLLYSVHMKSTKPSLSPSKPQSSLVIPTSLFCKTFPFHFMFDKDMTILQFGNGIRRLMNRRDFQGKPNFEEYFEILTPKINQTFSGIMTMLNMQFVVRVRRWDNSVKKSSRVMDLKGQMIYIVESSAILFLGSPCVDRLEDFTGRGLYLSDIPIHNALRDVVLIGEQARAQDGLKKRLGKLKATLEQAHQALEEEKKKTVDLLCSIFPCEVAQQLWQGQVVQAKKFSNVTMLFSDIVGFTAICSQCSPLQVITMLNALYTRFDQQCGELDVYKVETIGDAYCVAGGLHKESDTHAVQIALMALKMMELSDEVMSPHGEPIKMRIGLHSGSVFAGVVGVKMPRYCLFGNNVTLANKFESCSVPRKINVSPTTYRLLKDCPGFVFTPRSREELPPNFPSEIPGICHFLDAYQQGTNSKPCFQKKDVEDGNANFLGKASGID
soluble guanylate cyclase (human GUCYA3 and GUCYB3) overexpressed in CHO cells, sequence (Q02153 whole entry): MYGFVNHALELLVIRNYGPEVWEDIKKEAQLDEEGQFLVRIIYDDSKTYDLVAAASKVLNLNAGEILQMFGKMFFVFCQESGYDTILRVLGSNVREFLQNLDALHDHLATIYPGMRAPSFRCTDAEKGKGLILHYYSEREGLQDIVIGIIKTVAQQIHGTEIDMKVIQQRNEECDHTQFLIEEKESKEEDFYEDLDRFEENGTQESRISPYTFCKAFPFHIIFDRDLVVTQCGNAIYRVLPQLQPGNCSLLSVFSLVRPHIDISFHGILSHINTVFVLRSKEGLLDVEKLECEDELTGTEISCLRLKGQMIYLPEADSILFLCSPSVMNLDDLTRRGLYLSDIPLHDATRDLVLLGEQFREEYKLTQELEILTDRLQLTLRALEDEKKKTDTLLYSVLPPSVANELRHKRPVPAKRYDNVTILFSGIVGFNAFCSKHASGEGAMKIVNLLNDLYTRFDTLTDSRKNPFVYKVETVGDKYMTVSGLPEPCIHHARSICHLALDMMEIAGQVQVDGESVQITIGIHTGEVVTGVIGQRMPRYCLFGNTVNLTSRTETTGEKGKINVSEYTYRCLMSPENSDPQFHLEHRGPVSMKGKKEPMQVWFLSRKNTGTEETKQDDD
Format: cell-based
Procedure, shortened: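 Stable CHO-K1 clone 8E10 expressing human sGC (GUCYA3/GUCYB3), 3000 cells/well, exposed 1 h at room temperature to activators in HBSS, 0.1% BSA, 1 mM IBMX, 20 uM ODQ, 0.5% DMSO final. cGMP was measured by HTRF and interpolated from a standard curve. EC50 came from a 4-parameter sigmoidal fit.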

EC50 [nM]	Compound
116	O=C(O)c1cnn(-c2cccc(-c3cccc4c3C(Oc3ccc5c(c3)CCN(Cc3ccccn3)C5)CC4)n2)c1C(F)(F)F (single isomer, unassigned; (-)) [Example 4b, (−)-1-(6-(3-((2-(Pyridin-2-ylmethyl)-1,2,3,4-tetrahydroisoquinolin-6-yl)oxy)-2,3-dihydro-1H-inden-4-yl)pyridin-2-yl)-6-(trifluoromethyl)-1H-pyrazole-4-carboxylic Acid]
≤ 0.5	CCc1cc(CN2CC(C)c3cccc(-c4cccc(-n5ncc(C(=O)O)c5C(F)(F)F)n4)c32)ccc1C1CCN(C(=O)C2CC2)CC1 (single isomer, unassigned; (-)) [Example 19b, (−)-1-(6-(1-(4-(1-(Cyclopropanecarbonyl)piperidin-4-yl)-3-ethylbenzyl)-3-methylindolin-7-yl)pyridin-2-yl)-5-(trifluoromethyl)-1H-pyrazole-4-carboxylic Acid]
11	CCc1cc(NC2CCc3cccc(-c4cccc(-n5ncc(C(=O)O)c5CC)n4)c32)ccc1C1CCN(C(=O)[C@H](C)O)CC1 (single isomer, unassigned; (-)) [Example 48b]
20	CCC[C@H](O)C(=O)N1CCC(c2ccc(NC3CCc4cccc(-c5cccc(-n6ncc(C(=O)O)c6CC)n5)c43)cc2CC)CC1 (single isomer, unassigned; (-)) [Example 49b]
≤ 0.5	Cc1cc(C2CCN(C(=O)C3CC3)CC2)ccc1CN1CCc2cccc(-c3cccc(-n4ncc(C(=O)O)c4C)n3)c21 [Example 21-1, 1-(6-(1-(4-(1-(Cyclopropanecarbonyl)piperidin-4-yl)-2-methylbenzyl)indolin-7-yl)pyridin-2-yl)-5-methyl-1H-pyrazole-4-carboxylic acid]
3	(−)-Ethyl-1-(6-(3-((3-ethyl-4-(1-(isopropoxycarbonyl)piperidin-4-yl)phenyl)amino)-2,3-dihydro-1H-inden-4-yl)pyridin-2-yl)-1H-pyrazole-4-carboxylic Acid [Example 51b]

Further lines, the compound ahead of its results:

Compound	EC50 [nM]
CCc1cc(CN2CC(C)c3cccc(-c4cccc(-n5ncc(C(=O)O)c5CC)n4)c32)ccc1C1CCN(C(=O)C2CC2)CC1 (single isomer, unassigned; (-)) [(−)-20-1, (−)-1-(6-(1-(4-(1-(Cyclopropanecarbonyl)piperidin-4-yl)-3-ethylbenzyl)-3-methylindolin-7-yl)pyridin-2-yl)-5-ethyl-1H-pyrazole-4-carboxylic acid]	≤ 0.5
CCc1cc(CN2CC(C)c3cccc(-c4cccc(-n5ncc(C(=O)O)c5C)n4)c32)ccc1C1CCN(C(=O)C2CC2)CC1 (single isomer, unassigned; (-)) [(−)-20-3, (−)-1-(6-(1-(4-(1-(Cyclopropanecarbonyl)piperidin-4-yl)-3-ethylbenzyl)-3-methylindolin-7-yl)pyridin-2-yl)-5-methyl-1H-pyrazole-4-carboxylic acid]	≤ 0.5
Cc1cc(C2CCN(C(=O)C3CC3)CC2)ccc1OC1CCc2cccc(-c3cccc(-n4ncc(C(=O)O)c4C(F)(F)F)n3)c21 (single isomer, unassigned; (-)) [Example 3b]	6.9
O=C(O)c1cnn(-c2cccc(-c3cccc4c3C(Oc3ccc(C5CCN(C(=O)C6CC6)CC5)cc3C(F)(F)F)CC4)n2)c1C(F)(F)F (single isomer, unassigned; enantiomer-1) [61. b). (enantiomer-1), (+)- or (−)-1-(6-(3-(4-(1-(Cyclopropanecarbonyl)piperidin-4-yl)-2-(trifluoromethyl)phenoxy)-2,3-dihydro-1H-inden-4-yl)pyridin-2-yl)-5-(trifluoromethyl)-1H-pyrazole-4-carboxylic acid]	15
O=C(O)c1cnn(-c2cccc(-c3cccc4c3C(Oc3ccc(C5CCN(C(=O)C6CC6)CC5)cc3C(F)(F)F)CC4)n2)c1C(F)(F)F (single isomer, unassigned; enantiomer-2) [61. b). (enantiomer-2), (−)- or (+)-1-(6-(3-(4-(1-(cyclopropanecarbonyl)piperidin-4-yl)-2-(trifluoromethyl)phenoxy)-2,3-dihydro-1H-inden-4-yl)pyridin-2-yl)-5-(trifluoromethyl)-1H-pyrazole-4-carboxylic acid]	2
